Test results published in patent US20240182465A1 (GENFLEET THERAPEUTICS (SHANGHAI) INC., priority 2021, published 2024).
Structures can show the parent of a compound that is named as a salt.

How the values were obtained:
[1] = molecular target: T1, HPK1 (Homo sapiens, UniProt Q92918); test: HPK1 kinase activity assay (ADP-Glo); details: HPK1 Kinase activity IC50 (nM), 1 nM HPK1, 10 μM ATP, 0.1 μg/μL MBP
T1 sequence (Q92918 1-346 limits assumed): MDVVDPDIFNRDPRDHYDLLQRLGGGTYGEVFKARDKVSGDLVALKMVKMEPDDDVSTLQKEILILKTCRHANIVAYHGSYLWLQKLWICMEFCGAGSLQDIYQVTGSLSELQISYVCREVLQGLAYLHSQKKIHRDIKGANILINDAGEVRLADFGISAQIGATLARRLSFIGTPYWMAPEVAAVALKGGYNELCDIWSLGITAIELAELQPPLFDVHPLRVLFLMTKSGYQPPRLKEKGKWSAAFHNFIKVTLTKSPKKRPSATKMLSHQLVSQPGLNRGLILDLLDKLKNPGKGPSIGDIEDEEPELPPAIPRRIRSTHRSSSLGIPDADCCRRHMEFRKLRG

[2] = molecular target: HPK1 (Homo sapiens, UniProt Q92918); test: SLP76 phosphorylation assay (intracellular HPK1 inhibitory activity, p-SLP76 Ser376 sandwich ELISA); details: p-SLP76 IC50(nM), Jurkat, Clone E6-1 cells; 1 h compound pre-incubation, anti-CD3 beads stimulation 20 min; SLP76 phosphorylation at S376
Target sequence in this assay (Q92918 whole entry): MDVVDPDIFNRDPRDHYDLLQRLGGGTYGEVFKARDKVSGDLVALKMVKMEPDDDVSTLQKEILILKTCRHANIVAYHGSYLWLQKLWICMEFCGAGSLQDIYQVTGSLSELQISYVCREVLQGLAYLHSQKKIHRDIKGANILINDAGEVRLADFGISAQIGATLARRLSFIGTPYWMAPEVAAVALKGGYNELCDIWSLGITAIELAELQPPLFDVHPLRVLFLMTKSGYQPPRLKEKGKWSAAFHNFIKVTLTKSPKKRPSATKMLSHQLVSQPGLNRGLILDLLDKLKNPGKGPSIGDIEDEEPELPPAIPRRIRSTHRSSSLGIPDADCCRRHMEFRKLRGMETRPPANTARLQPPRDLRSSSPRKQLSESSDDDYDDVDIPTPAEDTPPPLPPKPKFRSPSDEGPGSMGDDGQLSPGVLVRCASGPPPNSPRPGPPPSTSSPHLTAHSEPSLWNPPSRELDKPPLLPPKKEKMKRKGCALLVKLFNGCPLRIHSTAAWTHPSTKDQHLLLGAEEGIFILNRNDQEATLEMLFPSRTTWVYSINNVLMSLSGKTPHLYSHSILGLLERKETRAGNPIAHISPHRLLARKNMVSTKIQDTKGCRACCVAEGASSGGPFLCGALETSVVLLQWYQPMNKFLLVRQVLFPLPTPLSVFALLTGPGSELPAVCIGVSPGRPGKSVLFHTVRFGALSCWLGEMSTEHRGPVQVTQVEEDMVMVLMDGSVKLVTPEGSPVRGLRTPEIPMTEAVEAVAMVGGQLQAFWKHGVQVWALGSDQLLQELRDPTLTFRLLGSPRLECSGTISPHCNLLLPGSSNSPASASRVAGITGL
Description: Intracellular HPK1 inhibitory activity was tested by the detection of SLP76 phosphorylation at S376.
Preparation of 1000× drug stock plate: a 1000× compound stock plate was prepared. […] The compound stock plate was sealed with a sealing film and stored in a −20° C. refrigerator for later use.
Preparation of Beads wash buffer: 0.1 mL FBS and 0.4 mL 0.5 M EDTA (with a final concentration of 2 mM) were added to 100 mL PBS and stored in a 4° C. refrigerator for later use.
100× Protease Inhibitor Cocktail in 1/20 total volume was added and stored on wet ice for later use. The buffer was ready to use.
Cell inoculation and dosing: the 1000× drug stock plate was taken and melted at room temperature in the dark. […] Jurkat cells in the logarithmic growth phase were selected and collected. […] The cells were inoculated into a 96-well plate (the volume was 90 μL per well), and a blank control well (without cells inoculation, and in which 110 μL of medium was added) was set. 10 μL of a drug-containing culture medium (10×) was transferred from the 10× drug intermediate plate into the 96-well cell plate (with a final concentration of 0.1% DMSO), and set a DMSO control group (in which 0.1% DMSO was added to the treated cells), a stimulated control group (in which 10 μL of culture medium was added to treat cells) and an unstimulated group (in which 10 μL of culture medium was added to treat cells). The wells were duplicated, gently patted, mixed, and then placed into a 5% CO2 incubator at 37° C. for 1 h.
Anti-CD3 beads stimulation: Dynabeads anti-human CD3 was taken, shaken, and mixed for 60 s. The required volume of beads was pipetted, and an equal volume or at least 1 mL of washing solution was added to wash once. Fresh complete medium was then added to resuspend and adjust the density of the beads to 4×10^7/mL, and the beads were placed on ice for later use. At the end of drug pre-incubation, the cell culture plate was taken out. 10 μL Dynabeads anti-human CD3 was added to each well to treat the cells, and 10 μL the culture medium was added to the unstimulated group. The cell culture plate was shaken to mix well at 2500 rpm for 10 s, and then placed into a 5% CO2 incubator at 37° C. and continued to culture for 20 min.
Detection of p-SLP76 protein level. PathScan Phospho-SLP-76 (Ser376) Sandwich ELISA Kit was applied to detect p-SLP76 protein level. At the end of the Anti-CD3 beads stimulation, the cell culture plate was removed from the incubator. […] After lysis, the cell culture plate was centrifuged at 4° C., 400×g for 5 min. 25 μL of sample and 75 μL of sample diluent were added to each well, and the plate was placed in a 5% CO2 incubator at 37° C. for 2 h. The subsequent detection steps were carried out following the kit instructions, and the absorbance (OD value) of each well was read at 450 nm by a microplate reader.

IC50 [1] [nM] | IC50 [2] [nM] | SMILES
0.36 | 174 | Cc1c[nH]c2ncc(-c3cc4c(c([C@@H]5CCCN5)c3)CN(C(=O)c3cnn(C(F)F)c3)CC4)cc12 [Compound Z336, (S)-(1-(difluoromethyl)-1H-pyrazol-4-yl)-[6-(3-methyl-1H-pyrrolo[2,3-b]pyridin-5-yl)-8-[pyrrolidin-2-yl]-3,4-dihydroisoquinolin-2(1H)-yl]methanone]
1.57 | 359 | Cc1c[nH]c2ncc(-c3cc4c(c([C@@H]5CCCN5)c3)CN(C(=O)c3cn(C)nc3C(F)(F)F)CC4)cc12 [Compound Z337, [6-(3-methyl-1H-pyrrolo[2,3-b]pyridin-5-yl)-8-[(2S)-pyrrolidin-2-yl]-3,4-dihydro-1H-isoquinolin-2-yl]-[l-methyl-3-(trifluoromethyl)pyrazol-4-yl]methanone]
1.09 | 492 | Cc1nn(C2CC2)cc1C(=O)N1CCc2cc(-c3cnc4[nH]cc(C)c4c3)cc([C@@H]3CCCN3)c2C1 [Compound Z341]
0.4 | 177 | Cc1cc(N2CCc3cc(-c4cnc5[nH]cc(C)c5c4)cc([C@@H]4CCCN4)c3C2)cc(C)n1 [Compound Z343, (S)-2-(2,6-dimethylpyridin-4-yl)-6-(3-methyl-1H-pyrrolo[2,3-b]pyridin-5-yl)-8-(pyrrolidin-2-yl)-1,2,3,4-tetrahydroisoquinoline]
1.52 | 386 | COc1cc(N2CCc3cc(-c4cnc5[nH]cc(C)c5c4)cc([C@@H]4CCCN4)c3C2)ccn1 [Compound Z344, (S)-2-(2-methoxypyridin-4-yl)-6-(3-methyl-1H-pyrrolo[2,3-b]pyridin-5-yl)-8-(pyrrolidin-2-yl)-1,2,3,4-tetrahydroisoquinoline]
0.43 | 226 | Cc1c[nH]c2ncc(-c3cc4c(c([C@@H]5CCCN5)c3)CN(C(=O)c3cnn(C5CC5)c3C)CC4)cc12 [Compound Z346, (S)-(1-cyclopropyl-5-methyl-1H-pyrazol-4-yl)-[6-(3-methyl-1H-pyrrolo[2,3-b]pyridin-5-yl)-8-[pyrrolidin-2-yl]-3,4-dihydroisoquinolin-2(1H)-yl]methanone]
0.47 | 240 | Cc1ncc(C(=O)N2CCc3cc(-c4cnc5[nH]cc(C)c5c4)cc([C@@H]4CCCN4)c3C2)c(C(F)(F)F)n1 [Compound Z349, (S)-(6-(3-methyl-1H-pyrrolo[2,3-b]pyridin-5-yl)-8-(pyrrolidin-2-yl)-3,4-dihydroisoquinolin-2(1H)-yl) (2-methyl-4-(trifluoromethyl)pyrimidin-5-yl)methanone]
0.87 | 126 | Cc1c[nH]c2ncc(-c3cc4c(c([C@@H]5CCCN5)c3)CN(C(=O)c3cnc(C5CC5)nc3)CC4)cc12 [Compound Z351, (S)-(2-cyclopropylpyrimidin-5-yl)(6-(3-methyl-1H-pyrrolo[2,3-b]pyridin-5-yl)-8-(pyrrolidin-2-yl)-3,4-dihydroisoquinolin-2(1H)-yl)methanone]
1.02 | 269 | Cc1c[nH]c2ncc(-c3cc4c(c([C@@H]5CCCN5)c3)CN(C(=O)c3cc(C)n(C)n3)CC4)cc12 [Compound Z354]
0.45 | 196 | Cc1cc(C(=O)N2CCc3cc(-c4cnc5[nH]cc(C)c5c4)cc([C@@H]4CCCN4)c3C2)n(C)n1 [Compound Z355, (S)-(1,3-dimethyl-1H-pyrazol-5-yl)(6-(3-methyl-1H-pyrrolo[2,3-b]pyridin-5-yl)-8-(pyrrolidin-2-yl)-3,4-dihydroisoquinolin-2(1H)-yl)methanone]
0.28 | 62.1 | Cc1c[nH]c2ncc(-c3cc4c(c([C@@H]5CCCN5)c3)CN(C(=O)N3CCOCC3)CC4)cc12 [Compound Z356, (S)-(6-(3-methyl-1H-pyrrolo[2,3-b]pyridin-5-yl)-8-(pyrrolidin-2-yl)-3,4-dihydroisoquinolin-2(1H)-yl) (morpholino)methanone]
0.22 | 92.9 | Cc1c[nH]c2ncc(-c3cc4c(c([C@@H]5CCCN5)c3)CN(C(=O)N3CCOC(C)(C)C3)CC4)cc12 [Compound Z362, (S)-(2,2-dimethylmorpholine)(6-(3-methyl-1H-pyrrolo[2,3-b]pyridin-5-yl)-8-(pyrrolidin-2-yl)-3,4-dihydroisoquinolin-2(1H)-yl)methanone]
1.41 | 417 | Cc1c[nH]c2ncc(-c3cc4c(c([C@@H]5CCCN5)c3)CN(C(=O)c3cnn(C)c3)C4)cc12 [Compound Z368, (S)-(1-methyl-1H-pyrazol-4-yl)(6-(3-methyl-1H-pyrrolo[2,3-b]pyridin-5-yl)-4-(pyrrolidin-2-yl)isoindolin-2-yl)methanone hydrochloride]
3.8 | 2400 | Cc1c[nH]c2ncc(-c3cc4c(c([C@@H]5CCCN5)c3)CN(C(=O)Nc3cccnc3)C4)cc12 [Compound Z387, (S)-6-(3-methyl-1H-pyrrolo[2,3-b]pyridin-5-yl)-N-(pyridin-3-yl)-4-(pyrrolidin-2-yl)isoindoline-2-carboxamide]
3.19 | 462 | Cc1c[nH]c2ncc(-c3cc4c(c([C@@H]5CCCN5)c3)CCN(C3CCOCC3)C4)cc12 [Compound Z401, (S)-7-(3-methyl-1H-pyrrolo[2,3-b]pyridin-5-yl)-5-(pyrrolidin-2-yl)-2-(tetrahydro-2H-pyran-4-yl)-1,2,3,4-tetrahydroisoquinoline]
1.2 | 454 | Cc1c[nH]c2ncc(-c3cc4c(c([C@@H]5CCCN5)c3)CCN(CC3CCOCC3)C4)cc12 [Compound Z402, 7-(3-methyl-1H-pyrrolo[2,3-h]pyridin-5-yl)-2-(3,4,5,6-tetrahydro-2H-pyran-4-ylmethyl)-5-[(2S)-tetrahydro-1H-pyrrol-2-yl]-1,2,3,4-tetrahydroisoquinoline]

Continued, compound first:

SMILES | IC50 [1] [nM] | IC50 [2] [nM]
Cc1c[nH]c2ncc(-c3cc4c(c([C@@H]5CCCN5)c3)CN(C(=O)c3cn(C(C)C)nc3C(F)(F)F)CC4)cc12 [Compound Z348, (S)-[1-isopropyl-3-(trifluoromethyl)-1H-pyrazol-4-yl]-[6-(3-methyl-1H-pyrrolo[2,3-b]pyridin-5-yl)-8-[pyrrolidin-2-yl]-3,4-dihydroisoquinolin-2(1H)-yl]methanone] | 0.75 | 183
CO[C@H]1CCN(C(=O)N2CCc3cc(-c4cnc5[nH]cc(C)c5c4)cc([C@@H]4CCCN4)c3C2)C1 [Compound Z357-1] | 0.31 | 99.3
CO[C@@H]1CCN(C(=O)N2CCc3cc(-c4cnc5[nH]cc(C)c5c4)cc([C@@H]4CCCN4)c3C2)C1 [Compound Z357-2, ((R)-3-methoxypyrrolidin-1-yl)(6-(3-methyl-1H-pyrrolo[2,3-b]pyridin-5-yl)-8-((S)-pyrrolidin-2-yl)-3,4-dihydroisoquinolin-2(1H)-yl)methanone] | 0.26 | 80.7
Cc1c[nH]c2ncc(-c3cc4c(c([C@@H]5CCCN5)c3)CN(C(=O)N3CCOC[C@@H]3C)CC4)cc12 [Compound Z358-1] | 0.23 | 67.4
Cc1c[nH]c2ncc(-c3cc4c(c([C@@H]5CCCN5)c3)CN(C(=O)N3CCOC[C@H]3C)CC4)cc12 [Compound Z358-2, (6-(3-methyl-1H-pyrrolo[2,3-b]pyridin-5-yl)-8-((S)-pyrrolidin-2-yl)-3,4-dihydroisoquinolin-2(1H)-yl) ((R)-3-methylmorpholin)methanone] | 0.23 | 53.2
Cc1c[nH]c2ncc(-c3cc4c(c([C@@H]5CCCN5)c3)CN(C(=O)N3CCO[C@@H](C)C3)CC4)cc12 [Compound Z359-1, (6-(3-methyl-1H-pyrrolo[2,3-b]pyridin-5-yl)-8-((S)-pyrrolidin-2-yl)-3,4-dihydroisoquinolin-2(1H)-yl) ((S)-2-methylmorpholin)methanone] | 0.27 | 135
Cc1c[nH]c2ncc(-c3cc4c(c([C@@H]5CCCN5)c3)CN(C(=O)N3CCO[C@H](C)C3)CC4)cc12 [Compound Z359-2, (6-(3-methyl-1H-pyrrolo[2,3-b]pyridin-5-yl)-8-((S)-pyrrolidin-2-yl)-3,4-dihydroisoquinolin-2(1H)-yl) ((R)-2-methylmorpholin)methanone] | 0.36 | 98.1
Cc1c[nH]c2ncc(-c3cc4c(c([C@@H]5CCCN5)c3)CN(C(=O)N3CCOCC3(C)C)CC4)cc12 [Compound Z361] | 0.36 | 102
O=C1OCc2ccc(-c3c[nH]c4ncc(-c5cc6c(c([C@@H]7CCCN7)c5)COCC6)cc34)cc21 [Compound Z365, (S)-6-(5-(8-(pyrrolidin-2-yl)isochroman-6-yl)-1H-pyrrolo[2,3-b]pyridin-3-yl)isobenzofuran-1(3H)-one] | 0.97 | 315
Cc1c[nH]c2ncc(-c3cc4c(c([C@@H]5CCCN5)c3)CN(C(=O)Nc3nccs3)C4)cc12 [Compound Z386, (S)-6-(3-methyl-1H-pyrrolo[2,3-b]pyridin-5-yl)-4-(pyrrolidin-2-yl)-N-(thiazol-2-yl)isoindoline-2-carboxamide] | 2.74 | 632
Cc1c[nH]c2ncc(-c3cc4c(c([C@@H]5CCCN5)c3)CN(C(=O)N3CC5CCC(C3)O5)CC4)cc12 [Compound Z389, (8-oxa-3-azabicyclo[3.2.1]octan-3-yl)(6-(3-methyl-1H-pyrrolo[2,3-b]pyridin-5-yl)-8-((S)-pyrrolidin-2-yl)-3,4-dihydroisoquinolin-2(1H)-yl)methanone] | 0.21 | 47.1
